Reference: patent US20250228784A1, “ANTIFIBROTIC COMPOSITION” (Sunshine Lake Pharma Co., Ltd., priority 2021, published 2025)

Test: Initial research on stability of the active compound on long-term storage
Assay type: physicochemical
Conditions: active compound alone, not formulated

stability on long-term storage: good stability
Structure (SMILES): CCCCCCN(CCCCCC)c1ccc(-n2c(C)nc(C)cc2=O)cc1F [compound having formula (I), 3-(4-(dihexylamino)-3-fluorophenyl)-2,6-dimethylpyrimidin-4(3H)-one]
